One experiment concerns CVB3-H3. Put plainly: Plaque reduction assay, CVB3-H3 in HeLa-RW cells. Format: cell-based, coxsackievirus B3. As to conditions: compound added 30 min before infection, CVB3-H3 MOI 1, HeLa-RW, 6 hours; log10(titer with DMSO only/titer with inhibitor).
In experiment [1] the test system is eGFP-expressing recombinant CVB3. Format: cell-based, coxsackievirus B3. As to conditions: for Inhibition of infected cells: eGFP-CVB3 m.o.i=1, compound added at time of infection, 6 hr post infection, 1-(% eGFP+ cells with compound/% with DMSO only).

In the case of `CC(C)n1ncc2c(C(=O)Nc3cccc(S(C)(=O)=O)c3)cc(-c3cccs3)nc21` [Compound 10, 1-lsopropyl-N-[3-(methylsulfonyl)phenyl]-6-(2-thienyl)-1H-pyrazolo [3,4-b]pyridine-4-carboxamide], the “Log10 reduction of virus titer” value in the experiment with CVB3-H3 was determined as 4.4. Further, the “Inhibition of infected cells” value in experiment [1] came out at 100%.

In the case of `Cn1ccc(NC(=O)c2cc(-c3cccs3)nc3ccccc23)n1` [Compound 32, N-(1-Methyl-1H-pyrazol-3-yl)-2-(2-thienyl)-4-quinoline-carboxamide], the “Log10 reduction of virus titer” value with CVB3-H3 came to 4.0. Besides, the “Inhibition of infected cells” value in experiment [1] is on record as 100%.

Regarding `C#CCSc1nc2ccccc2c(=O)n1Cc1ccccc1` [Compound 48, 3-Benzyl-2-(2-propyn-1-ylsulfanyl)-4(3H)-quinazolinone], the “Log10 reduction of virus titer” value with CVB3-H3 is reported as 4.5. Besides, the “Inhibition of infected cells” value in experiment [1] is listed as 100%.

For `COc1ccc(-c2nc3cnccn3c2NCc2ccc(C)cc2)cc1CO` [Compound 59, (2-Methoxy-5-{3-[(4-methylbenzyl)amino]imidazo[1,2-a]pyrazin-2-yl}phenyl)methanol], in the experiment with CVB3-H3, the “Log10 reduction of virus titer” value came to 1.3. In addition, in experiment [1], the “Inhibition of infected cells” value is listed as 75.2%.

In the case of `O=C(O)c1cccc(NS(=O)(=O)c2ccc(-c3ccccc3)cc2)c1` [Compound 56, 3-[(4-Biphenylylsulfonyl)amino] benzoic acid], the “Log10 reduction of virus titer” value in the experiment with CVB3-H3 stood at 0.3. Further, the “Inhibition of infected cells” value in experiment [1] amounted to 85.4%.

Turning to “1-Isopropyl- N,6-diphenyl-1H- pyrazolo[3,4-b] pyridine- 4-carboxamide [Compound 16]”, the “Log10 reduction of virus titer” value with CVB3-H3 is recorded as 4.5. Moreover, in experiment [1] (compound added 0 hr post infection at its peak activity concentration, read 6 hr post infection, DMSO 26.0), the “% of eGFP + cells, 0 Hr” value was 0.0%. In addition, in experiment [1] (compound added 1 hr post infection at its peak activity concentration, read 6 hr post infection, DMSO 23.7), the “% of eGFP + cells, 1 Hr” value is 0.1%. The “% of eGFP + cells, 2 Hr” value in experiment [1] (compound added 2 hr post infection at its peak activity concentration, read 6 hr post infection, DMSO 24.8) is listed as 0.0%. In addition, the “Inhibition of infected cells” value in experiment [1] came to 100%.

`Cc1ccc(S(C)(=O)=O)cc1NC(=O)c1cc(C2CC2)nc2c1cnn2C(C)C` [Compound 12, 6-Cyclopropyl-1-isopropyl-N-[2-methyl-5-(methylsulfonyl)phenyl]-1H-pyrazolo[3,4-b] pyridine-4-carboxamide]: the “Log10 reduction of virus titer” value in the experiment on CVB3-H3 worked out at 4.2. Moreover, the “Inhibition of infected cells” value in experiment [1] is listed as 100%.

As to `CC1Oc2ccc(NC(=O)c3cc(-c4cccs4)nc4ccccc34)cc2NC1=O` (stereo not shown) [Compound 30, N-(2-Methyl-3-oxo-3,4-dihydro-2H-1,4-benzoxazin-6-yl)-2-(2-thienyl)-4-quinolinecarboxamide], the “Log10 reduction of virus titer” value in the experiment on CVB3-H3 was 4.1. For the same compound, in experiment [1], the “Inhibition of infected cells” value stood at 100%.

Regarding `COc1ccc(CCC2CCN(Cc3cc(=O)n4ccccc4n3)CC2)cc1` [Compound 52, 2-({4-[2-(4-Methoxyphenyl)ethyl]-1-piperidinyl}methyl)-4H-pyrido[1,2-a]pyrimidin-4-one], the “Log10 reduction of virus titer” value with CVB3-H3 is on record as 0.0. The “Inhibition of infected cells” value in experiment [1] stood at 57.7%.

For the compound `COc1ccc(/N=c2\oc3ccccc3cc2C(=O)NCC2CCCO2)cc1` (stereo not shown) [Compound 62, (2Z)-2-[(4-Methoxyphenyl)imino]-N-(tetrahydro-2-furanylmethyl)-2H-chromene-3-carboxamide], in the experiment with CVB3-H3, the “Log10 reduction of virus titer” value came out at 1.5. Besides, the “Inhibition of infected cells” value in experiment [1] amounted to 90.4%.

On to `CC(C)n1ncc2c(C(=O)Nc3cccc(-c4nnc5n4CCCCC5)c3)cc(C3CC3)nc21` [Compound 14, 6-Cyclopropyl-1-isopropyl-N-[3-(6,7,8,9-tetrahydro-5H-[1,2,4]triazolo [4,3-a]azepin-3-yl)phenyl]-1H-pyrazolo [3,4-b]pyridine-4-carboxamide], for which, in the experiment on CVB3-H3, the “Log10 reduction of virus titer” value is reported as 3.3. Moreover, the “Inhibition of infected cells” value in experiment [1] was determined as 100%.

Take `COc1ccc(-c2nc(C)c(C(=O)Nc3cccc(-c4nnc5n4CCCCC5)c3)s2)cc1` [Compound 61, 2-(4-Methoxyphenyl)-4-methyl-N-[3-(6,7,8,9-tetrahydro-5H-[1,2,4]triazolo [4,3-a]azepin-3-yl)phenyl]-1,3-thiazole-5-carboxamide]: the “Log10 reduction of virus titer” value in the experiment with CVB3-H3 was 1.8. Moreover, the “Inhibition of infected cells” value in experiment [1] came out at 96.0%.

Take `CCCSc1nc2ccccc2c(=O)n1Cc1ccccc1` [Compound 47, 3-Benzyl-2-(propylsulfanyl)-4(3H)-quinazolinone]: in the experiment with CVB3-H3, the “Log10 reduction of virus titer” value is 4.1. Further, the “Inhibition of infected cells” value in experiment [1] is on record as 100%.

On to `O=C(c1ccc2c(c1)OCCO2)C1CCN(C(=O)c2ccc(-n3cccn3)cc2)CC1` [Compound 46, 2,3-Dihydro-1,4-benzodioxin-6-yl {1-[4-(1H-pyrazol-1-yl)benzoyl]-4-piperidinyl}methanone], for which, in the experiment with CVB3-H3, the “Log10 reduction of virus titer” value is recorded as 1.3. For the same compound, the “Inhibition of infected cells” value in experiment [1] is recorded as 82.6%.

As to `Cc1nc2ccccc2c2c(NC(=O)c3cnccn3)c3ccccc3n12` [Compound 50, N-(6-Methylindolo [1,2-c]quinazolin-12-yl)-2-pyrazinecarboxamide], the “Log10 reduction of virus titer” value with CVB3-H3 worked out at 2.5. Further, the “Inhibition of infected cells” value in experiment [1] worked out at 69.9%.

For the compound `CCOc1ccc(C(=O)N2CCC(C(=O)c3ccc4c(c3)OCCO4)CC2)cc1` [Compound 44, 2,3-Dihydro-1,4-benzodioxin-6-yl[1-(4-ethoxybenzoyl)-4-piperidinyl] methanone], in the experiment with CVB3-H3, the “Log10 reduction of virus titer” value amounted to 0.2. Further, the “Inhibition of infected cells” value in experiment [1] was 84.9%.

`CC(=O)c1c(C)nc2ccc(Cl)cc2c1-c1ccccc1` [Compound 31, 1-(6-Chloro-2-methyl-4-phenyl-3-quinolinyl)ethanone]: the “Log10 reduction of virus titer” value in the experiment on CVB3-H3 is reported as 3.8. Also, the “Inhibition of infected cells” value in experiment [1] is reported as 94.5%.

On to `CCS(=O)(=O)c1ccc(NC(=O)c2cc(-c3ccccc3)nc3ccccc23)cc1` [Compound 27, N-[4-(Ethylsulfonyl)phenyl]-2-phenyl-4-quinoline-carboxamide], for which the “Log10 reduction of virus titer” value in the experiment with CVB3-H3 stood at 3.4. The “Inhibition of infected cells” value in experiment [1] came to 89.6%.

Turning to `Cc1ccc2nc(N3CCN(Cc4nnnn4Cc4ccccc4)CC3)c(C#N)cc2c1` [Compound 36, 2-{4-[(1-Benzyl-1H-tetrazol-5-yl)methyl]-1-piperazinyl}-6-methyl-3-quinoline-carbonitnle], the “Log10 reduction of virus titer” value in the experiment on CVB3-H3 is 1.0. In addition, the “Inhibition of infected cells” value in experiment [1] came to 79.7%.

In the case of `O=C(N/N=C/c1ccc(O)cc1)c1cc(-c2ccccc2)nc2ccccc12` [Compound 29, N′-[(E)-(4-Hydroxyphenyl)methylene]-2-phenyl-4-quinoline-carbohydrazide], the “Log10 reduction of virus titer” value in the experiment with CVB3-H3 is listed as 3.8. Moreover, the “Inhibition of infected cells” value in experiment [1] came out at 100%.

On to `O=C(c1ccco1)N(Cc1ccccc1)Cc1ccccn1` [Compound 58, N-Benzyl-N-(2-pyridinylmethyl)-2-furamide], for which, in the experiment on CVB3-H3, the “Log10 reduction of virus titer” value came to 2.4. For the same compound, the “Inhibition of infected cells” value in experiment [1] was 91.7%.

`Cl.OCCN1CCN(CC/C=C2/c3ccccc3Sc3ccc(Cl)cc32)CC1` [Compound 71, 2-[4-[3-(2-chlorothioxanthen-9-ylidene)propyl]piperazin-1-yl]ethanol hydrochloride, reference compound]: in the experiment with CVB3-H3, the “Log10 reduction of virus titer” value is on record as 4.2. Moreover, the “Inhibition of infected cells” value in experiment [1] stood at 99.1%.

For `Br.COc1ccc(C(=O)Cn2c(=N)n(Cc3ccc(C)cc3)c3ccccc32)cc1` [Compound 39, 1-[2-(4-Methoxyphenyl)-2-oxoethyl]-3-(4-methylbenzyl)-1,3-dihydro-2H-benzimidazol-2-iminium bromide], in the experiment on CVB3-H3, the “Log10 reduction of virus titer” value is listed as 0.3. Also, the “Inhibition of infected cells” value in experiment [1] is 100%.

For the origin of these results see patent US20150164910A1, “ANTIVIRAL COMPOUNDS AND METHODS OF USE” (The Regents of the University of Califonia, priority 2012, published 2015).
